Measured values: patent US20230094952A1, “Method for Culturing Hematopoietic Stem Cells” (Sumitomo Pharma Co., Ltd., priority 2019, published 2023)

How the values were obtained:
[1] = test system: human hematopoietic stem cells (CD34-positive cells); assay: Confirmation test with human cells: 1-week culture of cord blood Lineage-negative CD34-positive cells, flow cytometry; format: cell-based
Text: Collection of Human Cord Blood-Derived Mononuclear Cells Human cord blood-derived mononuclear cells were subjected to removal of erythrocytes and concentration treatment by using EasySep RBC Depletion Reagent (manufactured by […] Technologies Inc.) to obtain a cell population including hematopoietic stem cells.
First, a CD34-positive cell fraction was partially purified from the thus-obtained cell population including hematopoietic stem cells by using an EASYSep Human Cord Blood CD34 Positive Selection Kit II (manufactured by […] Technologies Inc.). The concentrated CD34-positive cells in a cell population enriched with hematopoietic stem cells and progenitor cells were stained with antibodies for the following cell surface markers.
Staining with the antibodies was performed at 4° C., and the cells were incubated for 30 minutes. For staining with the CD34 antibody, the cells were incubated for 90 minutes. Dead cell staining was performed with SYTOX Blue Dead Cell Stain (manufactured by Life Technologies) in accordance with a method recommended by the manufacturer.
Flow cytometry analysis and cell classification (cell sorting) were performed with a FACS Aria III cell sorter (manufactured by BD Biosciences), wherein fractions being Lineage-negative and CD34-positive were regarded as hematopoietic stem cells, and analysis was performed with the software FlowJo (manufactured by Tree Star, Inc.).
The cells after classification were seeded in a 96-well plate. […]
Each of artemether and the compounds of Example 1-23, Example 1-16, and Example 1-7 was prepared with the cell culture medium at nine final concentrations (0.001 μM, 0.003 μM, 0.01 μM, 0.03 μM, 0.1 μM, 0.3 μM, 1 μM, 3 μM, 10 μM), and added to the above human cells seeded after classification to a final volume of 200 μL/well to act thereon. UM171 (35 nM) was added to some of them to examine the presence or absence of synergistic effect. Thereafter, the cells were cultured in a CO2 incubator under conditions of 37° C. and 5% CO2 for 1 week. Viable cell counts and CD34-positive cell counts were analyzed.
After culture, the cells were stained with the antibodies for the surface markers CD34, CD11b, CD14, CD19, CD20, CD235ab, CD3, CD4, CD56, and CD8a, and the visible cell count and the ratio and post-growth cell count of a CD34 fraction (CD34^+, Lin^−) were measured by using a FACS Aria III cell sorter, and analyzed by using FlowJo (BD Biosciences). The CD34 fraction is a fraction including hematopoietic stem cells and multipotent progenitor cells as main components.

[2] = test system: human hematopoietic stem cells (CD34-positive cells); assay: Functional test with human cells: colony assay (CFU-GEMM) after culture; format: cell-based
Description: Each of artemether and the compounds of Example 1-23, Example 1-16, and Example 1-7 was prepared with the cell culture medium at nine final concentrations (0.001 μM, 0.003 μM, 0.01 μM, 0.03 μM, 0.1 μM, 0.3 μM, 1 μM, 3 μM, 10 μM), and added to the above human cells seeded after classification to a final volume of 200 μL/well to act thereon. UM171 (35 nM) was added to some of them to examine the presence or absence of synergistic effect. Thereafter, the cells were cultured in a CO2 incubator under conditions of 37° C. and 5% CO2 for 1 week, collected, and then seeded in a 96-well plate to place one CD34-positive cell in each well by using a FACS Aria III cell sorter, and cultured with a MethoCult H4435 ([…] Technologies Inc.) for 2 weeks. After culture, each well was photographed with an optical microscope (manufactured by KEYENCE CORPORATION), and the colony count was determined by visual observation and the form of each colony was determined by visual observation. Colony Formation Unit-Granulocytes, Erythroids, Macrophages, Megakaryocytes (CFU-GEMM), which are derived from myeloid progenitor cells, the erythroid burst colony-forming cells Burst Forming Unit-Erythroids (BFU-E), the granulocyte/macrophage colony-forming cells Colony Formation Unit-Granulocytes, Macrophages (CFU-GM) were determined on the basis of the forms of colonies, and the numbers were counted.

[3] = compound 0.001 μM, 180 cells before culture, no UM171
[4] = compound 0.003 μM, 180 cells before culture, no UM171
[5] = compound 0.01 μM, 180 cells before culture, no UM171
[6] = compound 0.03 μM, 180 cells before culture, no UM171
[7] = compound 0.1 μM, 180 cells before culture, no UM171
[8] = compound 0.3 μM, 180 cells before culture, no UM171
[9] = compound 1 μM, 180 cells before culture, no UM171
[10] = compound 3 μM, 180 cells before culture, no UM171
[11] = compound 10 μM, 180 cells before culture, no UM171
[12] = compound 0.001 μM, 1 week culture then 2 weeks MethoCult H4435, no UM171
[13] = compound 0.003 μM, 1 week culture then 2 weeks MethoCult H4435, no UM171
[14] = compound 0.01 μM, 1 week culture then 2 weeks MethoCult H4435, no UM171
[15] = compound 0.03 μM, 1 week culture then 2 weeks MethoCult H4435, no UM171
[16] = compound 0.1 μM, 1 week culture then 2 weeks MethoCult H4435, no UM171
[17] = compound 0.3 μM, 1 week culture then 2 weeks MethoCult H4435, no UM171
[18] = compound 1 μM, 1 week culture then 2 weeks MethoCult H4435, no UM171
[19] = compound 3 μM, 1 week culture then 2 weeks MethoCult H4435, no UM171
[20] = compound 10 μM, 1 week culture then 2 weeks MethoCult H4435, no UM171
[21] = UM171 (35 nM) and artemether 0.001 μM
[22] = UM171 (35 nM) and artemether 0.003 μM
[23] = UM171 (35 nM) and artemether 0.01 μM
[24] = UM171 (35 nM) and artemether 0.03 μM
[25] = UM171 (35 nM) and artemether 0.1 μM
[26] = UM171 (35 nM) and artemether 0.3 μM
[27] = UM171 (35 nM) and artemether 1 μM

C[C@H]1[C@H](C(N)=O)O[C@@H]2O[C@@]3(C)CC[C@H]4[C@H](C)CC[C@@H]1[C@@]24OO3 [Example 1-16, (3R,5aS,6R,8aS,9R,10R,12R,12aR)-3,6,9-Trimethyldecahydro-12H-3,12-epoxypyrano[4,3-j][1,2]benzodioxepine-10-carboxamide]
CD34-positive cell count [1, 3]: 143 cell
Viable cell count [1, 3]: 1306 cell
CD34-positive cell count [1, 4]: 173 cell
Viable cell count [1, 4]: 1224 cell
CD34-positive cell count [1, 5]: 116 cell
Viable cell count [1, 5]: 1301 cell
CD34-positive cell count [1, 6]: 130 cell
Viable cell count [1, 6]: 590 cell
CD34-positive cell count [1, 7]: 92 cell
Viable cell count [1, 7]: 811 cell
CD34-positive cell count [1, 8]: 32 cell
Viable cell count [1, 8]: 549 cell
CD34-positive cell count [1, 9]: 13 cell
Viable cell count [1, 9]: 368 cell
CD34-positive cell count [1, 10]: 13 cell
Viable cell count [1, 10]: 300 cell
CD34-positive cell count [1, 11]: 3 cell
Viable cell count [1, 11]: 264 cell
Colony count (colony) after culture (CFU-GEMM) [2, 12]: 130.6 colony
Colony count (colony) after culture (CFU-GEMM) [2, 13]: 112.2 colony
Colony count (colony) after culture (CFU-GEMM) [2, 14]: 65.1 colony
Colony count (colony) after culture (CFU-GEMM) [2, 15]: 68.8 colony
Colony count (colony) after culture (CFU-GEMM) [2, 16]: 40.6 colony
Colony count (colony) after culture (CFU-GEMM) [2, 17]: 22.9 colony
Colony count (colony) after culture (CFU-GEMM) [2, 18]: 15.7 colony
Colony count (colony) after culture (CFU-GEMM) [2, 19]: 10.0 colony
Colony count (colony) after culture (CFU-GEMM) [2, 20]: 8.8 colony

C[C@H]1[C@H](c2ccco2)O[C@@H]2O[C@@]3(C)CC[C@H]4[C@H](C)CC[C@@H]1[C@@]24OO3 [Example 1-7, (3R,5aS,6R,8aS,9R,10R,12R,12aR)-10-(Furan-2-yl)-3,6,9-trimethyldecahydro-12H-3,12-epoxypyrano[4,3-j][1,2]benzodioxepine]
CD34-positive cell count [1, 3]: 175 cell
Viable cell count [1, 3]: 1314 cell
CD34-positive cell count [1, 4]: 113 cell
Viable cell count [1, 4]: 1013 cell
CD34-positive cell count [1, 5]: 150 cell
Viable cell count [1, 5]: 1115 cell
CD34-positive cell count [1, 6]: 86 cell
Viable cell count [1, 6]: 905 cell
CD34-positive cell count [1, 7]: 80 cell
Viable cell count [1, 7]: 693 cell
CD34-positive cell count [1, 8]: 5 cell
Viable cell count [1, 8]: 439 cell
CD34-positive cell count [1, 9]: 4 cell
Viable cell count [1, 9]: 196 cell
CD34-positive cell count [1, 10]: 0 cell
Viable cell count [1, 10]: 202 cell
CD34-positive cell count [1, 11]: 0 cell
Viable cell count [1, 11]: 181 cell
Colony count (colony) after culture (CFU-GEMM) [2, 12]: 43.8 colony
Colony count (colony) after culture (CFU-GEMM) [2, 13]: 33.8 colony
Colony count (colony) after culture (CFU-GEMM) [2, 14]: 74.3 colony
Colony count (colony) after culture (CFU-GEMM) [2, 15]: 83.0 colony
Colony count (colony) after culture (CFU-GEMM) [2, 16]: 64.1 colony
Colony count (colony) after culture (CFU-GEMM) [2, 17]: 19.5 colony
Colony count (colony) after culture (CFU-GEMM) [2, 18]: 0.0 colony
Colony count (colony) after culture (CFU-GEMM) [2, 19]: 0.0 colony
Colony count (colony) after culture (CFU-GEMM) [2, 20]: 0.0 colony

CO[C@H]1O[C@@H]2O[C@@]3(C)CC[C@H]4[C@H](C)CC[C@@H]([C@H]1C)[C@@]24OO3 [Example 1-30, artemether, reference compound]
CD34-positive cell count [1, 21]: 36 cell
Viable cell count [1, 21]: 301 cell
CD34-positive cell count [1, 22]: 102 cell
Viable cell count [1, 22]: 765 cell
CD34-positive cell count [1, 23]: 43 cell
Viable cell count [1, 23]: 323 cell
CD34-positive cell count [1, 24]: 56 cell
Viable cell count [1, 24]: 216 cell
CD34-positive cell count [1, 25]: 93 cell
Viable cell count [1, 25]: 376 cell
CD34-positive cell count [1, 26]: 9 cell
Viable cell count [1, 26]: 240 cell
CD34-positive cell count [1, 27]: 0 cell
Viable cell count [1, 27]: 31 cell
CD34-positive cell count [1, 3]: 59 cell
Viable cell count [1, 3]: 484 cell
CD34-positive cell count [1, 4]: 88 cell
Viable cell count [1, 4]: 921 cell
CD34-positive cell count [1, 5]: 57 cell
Viable cell count [1, 5]: 498 cell
CD34-positive cell count [1, 6]: 23 cell
Viable cell count [1, 6]: 298 cell
CD34-positive cell count [1, 7]: 45 cell
Viable cell count [1, 7]: 555 cell
CD34-positive cell count [1, 8]: 61 cell
Viable cell count [1, 8]: 550 cell
CD34-positive cell count [1, 9]: 35 cell
Viable cell count [1, 9]: 479 cell
CD34-positive cell count [1, 10]: 26 cell
Viable cell count [1, 10]: 380 cell
CD34-positive cell count [1, 11]: 27 cell
Viable cell count [1, 11]: 250 cell
Colony count (colony) after culture (CFU-GEMM) [2, 21]: 40.1 colony
Colony count (colony) after culture (CFU-GEMM) [2, 22]: 204.0 colony
Colony count (colony) after culture (CFU-GEMM) [2, 23]: 53.8 colony
Colony count (colony) after culture (CFU-GEMM) [2, 24]: 46.8 colony
Colony count (colony) after culture (CFU-GEMM) [2, 25]: 94.0 colony
Colony count (colony) after culture (CFU-GEMM) [2, 26]: 40.0 colony
Colony count (colony) after culture (CFU-GEMM) [2, 27]: 0.0 colony
Colony count (colony) after culture (CFU-GEMM) [2, 12]: 40.3 colony
Colony count (colony) after culture (CFU-GEMM) [2, 13]: 61.4 colony
Colony count (colony) after culture (CFU-GEMM) [2, 14]: 33.2 colony
Colony count (colony) after culture (CFU-GEMM) [2, 15]: 34.8 colony
Colony count (colony) after culture (CFU-GEMM) [2, 16]: 37.0 colony
Colony count (colony) after culture (CFU-GEMM) [2, 17]: 36.7 colony
Colony count (colony) after culture (CFU-GEMM) [2, 18]: 63.9 colony
Colony count (colony) after culture (CFU-GEMM) [2, 19]: 31.7 colony
Colony count (colony) after culture (CFU-GEMM) [2, 20]: 0.0 colony
